Data on two substances can be found in article PMC6747274, “Multifunctional Peptides from Spanish Dry-Cured Pork Ham: Endothelial Responses and Molecular Modeling Studies” (International Journal of Molecular Sciences, 2019).

Where no end group is shown, it is not given here.

The test system of one assay is EA.hy926 cells. The assay is described as follows: Annexin V / propidium iodide apoptosis and necrosis by FACS. In kind it is cell-based, human. The following applies: preincubation with 300 µM peptide, then 300 µM H2O2; three independent experiments, mean ± SD; NS vs H2O2 alone. The protocol: (§1) EA.hy926 were seeded in six-well plates at 0.25 × 10^6 cells/well in DMEM supplemented with 5% FBS. Cells were treated with 300 µM of each peptide for 16 h. Then, 100 ng/mL TNF-α or 300 µM H2O2 were added for an additional 6 h or 24 h, respectively.
ApoScreen Annexin V Apoptosis Kit-FITC (Southern Biotech, Birmingham, AL, USA) was used to detect the apoptosis rate. After the co-incubation of synthetic peptides and 300 µM H2O2, 0.4 × 10^6 cells were detached and washed in cold PBS, then resuspended in 100 µL Annexin V binding buffer and treated following the manufacturer’s protocol. Annexin V-fluorescein isothiocyanate (FITC) binding was assessed in FL1 channel simultaneously with propidium iodide (FL2 channel). This test discriminates among intact cells (FITC−/PI−), apoptotic cells (FITC+/PI−), and necrotic cells (FITC+/PI+). Assays were performed in triplicate (Table S1).
For orientation: In flow cytometry, cells or beads pass a laser one at a time.

Assay [1] concerns ICAM-1 protein, EA.hy926 cells. The assay is described as follows: Intracellular ICAM-1 protein by western blot. In kind it is cell-based, human. Particulars: 300 µM peptide + 100 ng/mL TNF-α vs TNF-α stimulation; p < 0.01. Here is the method:
as §1
Supplementary Material and Methods
1.1. Human ACE Inhibitio n Assa y
Before transfection, the endothelial ACE expressio n level was very low and the p roduct of the enzymatic reaction undete ctable, and so a recombinant construct e ncodi ng the Myc-Tag fused to the ACE ge ne was used. T o overexpress the ACE enzyme, EA.hy926 cel ls were seeded in 24-well plates at 80,000 cells/well and transiently transfec ted with a human Ace ORF mammali an expression plasmid (Sinobiological, Beijing, China) using trans-it X2 reagent ( Myrus®, Madi son, […]
Wisconsin, USA). […] The effi ciency of […]
transfecti on was checked by immunofluorescence. Briefly, 48 h post-transfection, cells were fixed with 4% paraformaldehyd e in culture medi um for 15 min at room temperatur e, blocked with 1% bo vine seru m albumin (BSA) in phosph ate buffer for 30 min followed by 0.2% sapo nin for 30 min to permeabil ize the membr ane. […]
The mRNA level s of the target genes (ICAM-1, VCAM-1, IL-6, eNOS, SOD, catal ase, NADPH, BAX) were quantified by RT-PCR using Se nsiFAST SYBER Hi-ROX Kit (Bioline, Taunton, USA) with StepOnePlus Real-Time PCR Sy stem (Appl ied Bi osystems, Foster City, CA, USA) using speci fi c and vali dated pri mers (Si gma-Al drich Chemical Co., Saint Louis, MO, USA).
The tetr azolium assay (MTT) was used to estimate the cel l viability in the presence of synthetic pepti des (up to 600 µM) and 300 µM H2O2. […] The formazan crystals formed in the intact cel ls were dissol ved in 200 µL dimethyl sulfoxide (DMSO) for 30 min and the absorbance was measured in a micro plate reader at 570 nm and 620 nm of reference. Results wer e calculated as cel l viability (%) = average optic density (OD) of wells/ave rage OD of control wells. […]
On the technique in general: A western blot detects proteins with antibodies after separation by electrophoresis.

Another assay has as its system purified rabbit ACE. The following applies: purified rabbit ACE in vitro; read-out: IC50, purified rabbit ACE (given as ACE inhibitory concentration); cited from earlier work. The source says: Numerous reports have identified stable peptides with high ACE-inhibitory activity from pork dry-cured ham after gastrointestinal digestion. Four of them were synthetized chemically (KPVAAP, KAAAATP, KPGRP, and AAATP) for the current experimental studies with human endothelial cells.

A further assay has as its target human ACE (Homo sapiens, UniProt P12821). The experiment in a line: Human ACE inhibition assay (lysate of ACE-transfected EA.hy926 cells, HHL substrate, HPLC).

human ACE, sequence (P12821 30-1306): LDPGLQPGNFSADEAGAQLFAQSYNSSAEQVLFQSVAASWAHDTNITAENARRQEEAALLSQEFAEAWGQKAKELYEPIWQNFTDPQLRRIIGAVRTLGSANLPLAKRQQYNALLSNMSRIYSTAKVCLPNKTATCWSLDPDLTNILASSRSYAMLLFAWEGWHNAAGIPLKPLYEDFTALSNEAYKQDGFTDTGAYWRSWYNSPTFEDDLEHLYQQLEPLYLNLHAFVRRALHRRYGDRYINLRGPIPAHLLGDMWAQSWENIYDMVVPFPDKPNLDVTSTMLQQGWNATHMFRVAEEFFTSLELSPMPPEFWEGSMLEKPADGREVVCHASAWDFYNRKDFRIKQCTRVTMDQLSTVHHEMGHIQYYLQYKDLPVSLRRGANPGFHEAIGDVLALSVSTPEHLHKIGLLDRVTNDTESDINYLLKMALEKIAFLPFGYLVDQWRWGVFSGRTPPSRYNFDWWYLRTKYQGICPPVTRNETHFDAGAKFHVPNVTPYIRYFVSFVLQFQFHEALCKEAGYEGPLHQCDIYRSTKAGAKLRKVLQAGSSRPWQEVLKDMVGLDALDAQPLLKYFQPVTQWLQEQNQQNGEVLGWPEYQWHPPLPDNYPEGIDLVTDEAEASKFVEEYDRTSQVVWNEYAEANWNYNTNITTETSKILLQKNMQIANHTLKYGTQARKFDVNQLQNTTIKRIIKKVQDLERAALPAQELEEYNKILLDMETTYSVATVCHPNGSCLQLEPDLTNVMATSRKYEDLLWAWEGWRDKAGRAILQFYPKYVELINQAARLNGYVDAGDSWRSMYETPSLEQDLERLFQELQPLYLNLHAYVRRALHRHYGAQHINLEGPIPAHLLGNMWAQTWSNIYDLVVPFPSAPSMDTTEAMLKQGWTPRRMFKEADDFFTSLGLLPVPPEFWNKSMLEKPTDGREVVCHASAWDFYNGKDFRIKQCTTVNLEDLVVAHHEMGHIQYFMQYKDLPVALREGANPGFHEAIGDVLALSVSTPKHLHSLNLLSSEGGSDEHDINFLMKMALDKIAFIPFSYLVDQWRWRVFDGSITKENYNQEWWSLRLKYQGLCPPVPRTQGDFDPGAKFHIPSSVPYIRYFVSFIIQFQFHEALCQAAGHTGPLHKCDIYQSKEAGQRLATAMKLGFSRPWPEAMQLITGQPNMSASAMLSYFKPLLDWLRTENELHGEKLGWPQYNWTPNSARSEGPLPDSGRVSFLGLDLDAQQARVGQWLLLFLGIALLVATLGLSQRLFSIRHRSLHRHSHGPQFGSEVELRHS

In the case of KAAAATP [BP2], in the assay with EA.hy926 cells, the “Apoptosis (AnV+/PI-), % cells” value was 14.47 ± 2.42%. The “Necrosis (AnV+/PI+), % cells” value in the assay on EA.hy926 cells amounted to 19.58 ± 0.18%. Also, the “ICAM-1 protein production (western blot)” value in assay [1] is “lower production of ICAM-1 protein”. The IC50 is 25.6 µM in the assay on purified rabbit ACE and greater than 1000 µM against human ACE.
Turning to AAATP [BP4], in the assay with EA.hy926 cells, the “Apoptosis (AnV+/PI-), % cells” value is on record as 12.16 ± 1.86% and the “Necrosis (AnV+/PI+), % cells” value amounted to 18.42 ± 6.34%. Moreover, the “ICAM-1 protein production (western blot)” value in assay [1] is “lower production of ICAM-1 protein”. For the same substance, in the assay on purified rabbit ACE, the IC50 is 100 µM. This substance also yielded an IC50 against human ACE greater than 1000 µM.
